Target: T1, human α4/β2 nicotinic receptors (Homo sapiens, UniProt P17787+P43681)
T1 construct: expressed in transfected cells; host or cells: Xenopus laevis oocytes injected with α4/β2 RNA (BMSC-injected and non-injected control oocytes)
Assay: Two electrode voltage clamp recordings of acetylcholine chloride concentration response in Xenopus laevis oocytes expressing human α4/β2 nicotinic receptors
Assay type: cell-based
Experimental: Electrophysiological Recordings. The last set of experiments was designed to investigate survival and lifespan differences between frog oocytes injected with BMSC and non-injected oocytes. Both groups were carefully maintained under the same conditions for a prolonged period of time. […] Whole cell currents were measured at room temperature, 48 hours after RNA injection.
Finally, the last set of experiments was devoted to the study of the longevity of recipient oocytes with control test for their functional activity in the form of ability of oocytes to express α4/β2 subunits of human nicotinic receptors in their membranes 48h after RNA injection.

[1] = BMSC injected 44 day old oocytes

T1 sequence (P43681 29-627 limits assumed): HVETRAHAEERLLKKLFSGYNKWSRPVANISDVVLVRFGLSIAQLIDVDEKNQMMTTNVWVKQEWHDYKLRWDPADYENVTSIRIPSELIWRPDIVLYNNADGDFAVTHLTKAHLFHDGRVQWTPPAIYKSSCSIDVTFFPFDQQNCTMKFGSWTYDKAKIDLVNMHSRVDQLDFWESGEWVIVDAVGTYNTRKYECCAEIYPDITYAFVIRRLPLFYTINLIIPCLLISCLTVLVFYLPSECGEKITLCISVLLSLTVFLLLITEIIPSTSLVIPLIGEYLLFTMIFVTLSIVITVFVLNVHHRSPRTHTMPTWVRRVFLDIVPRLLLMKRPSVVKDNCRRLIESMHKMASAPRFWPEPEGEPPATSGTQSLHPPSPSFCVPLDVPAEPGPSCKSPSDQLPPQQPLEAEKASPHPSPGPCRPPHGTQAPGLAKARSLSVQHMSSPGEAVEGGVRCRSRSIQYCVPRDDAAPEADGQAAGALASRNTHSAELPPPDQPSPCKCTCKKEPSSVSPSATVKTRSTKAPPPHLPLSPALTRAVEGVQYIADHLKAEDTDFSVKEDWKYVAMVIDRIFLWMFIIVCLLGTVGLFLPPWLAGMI
T1 sequence (P17787 26-502): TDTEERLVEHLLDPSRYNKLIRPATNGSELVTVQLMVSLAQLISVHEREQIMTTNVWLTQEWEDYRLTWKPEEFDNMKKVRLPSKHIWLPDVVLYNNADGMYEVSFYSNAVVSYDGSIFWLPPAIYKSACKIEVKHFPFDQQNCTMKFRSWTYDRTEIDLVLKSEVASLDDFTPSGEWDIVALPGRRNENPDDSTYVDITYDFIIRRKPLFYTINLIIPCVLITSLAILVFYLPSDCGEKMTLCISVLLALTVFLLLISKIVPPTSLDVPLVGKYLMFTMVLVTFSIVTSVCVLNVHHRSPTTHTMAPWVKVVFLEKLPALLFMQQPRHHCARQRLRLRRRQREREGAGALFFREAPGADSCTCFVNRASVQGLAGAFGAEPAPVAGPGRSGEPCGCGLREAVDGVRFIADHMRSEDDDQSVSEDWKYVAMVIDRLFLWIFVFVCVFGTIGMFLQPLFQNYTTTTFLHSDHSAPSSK

CC(=O)OCC[N+](C)(C)C.[Cl-] [Ach, acetylcholine chloride]
nH1 (high-affinity Hill coefficient) [1]: 0.51 | nH2 (low-affinity Hill coefficient) [1]: 3.0 | times lower concentration of agonist for 50% of Ach evoked peak current amplitude, BMSC injected vs control oocytes (high-affinity sites): 2.7 times | times lower concentration of Ach for 50% of peak current, BMSC injected vs control oocytes (low affinity sites): 3.8 times | nH1 (high-affinity Hill coefficient) (non-injected control oocytes): 0.68 | nH2 (low-affinity Hill coefficient) (non-injected control oocytes): 2.6

From US7135336B1, “Use of Xenopus laevis oocytes a microincubators” (University of South Florida, priority 2004, dated 2006)
